Results reported in article PMC11012124, “Synthesis of Novel Triazine-Based Chalcones and 8,9-dihydro-7H-pyrimido[4,5-b][1,4]diazepines as Potential Leads in the Search of Anticancer, Antibacterial and Antifungal Agents” (International Journal of Molecular Sciences, 2024).
Values after ≈ are worked out from the molar mass of the structure shown.

Experiments:
[1] = system: M. tuberculosis ATCC 27294; assay: Antitubercular broth microdilution MIC; format: cell-based; conditions: Mycobacterium tuberculosis; M. tuberculosis ATCC 27294 (H37Rv); read-out: Minimum inhibitory concentration (MIC)
A. flavus (ATCC 9170) = assay: Antifungal broth microdilution (CLSI); format: cell-based; conditions: ATCC9170; Afl: Aspergillus flavus
Protocol: (§1) Several of the obtained triazine derivatives were evaluated against sensitive fungal species comprising of two yeasts (Candida albicans (ATCC 10231), Cryptococcus neoformans (ATCC 32264)), three dermatophytes (Microsporum gypseum (CCC 115), Trichophyton rubrum (CCC 134-2000), Trichophyton mentagrophytes (CCC 202-2000)), and three Aspergillus fungi ((A. [NT] 26934), A. niger (ATCC 9029), and A. flavus (ATCC 9170)). […] Broth microdilution techniques were performed in 96-well microplates according to the Reference Method for Broth Dilution Antifungal Susceptibility Testing of Yeasts, document M27-A3 [86] and of Filamentous Fungi […]-A8 [87]. […] An inoculum suspension (100 μL) was added to each well (final well volume = 200 μL). One growth control well (containing medium, inoculum, and the same amount of DMSO as used for each compound) and one sterility control well (sample, medium, and sterile water instead of inoculum) were included for each fungus tested. Microtiter plates were incubated in a dark, humid chamber at 30 °C for the time necessary for each fungus. Amphotericin B, Terbinafine, Fluconazole and Itraconazole were used as a positive control. The tests were performed in triplicate.

[2] = system: Trichophyton mentagrophytes (CCC 202-2000); assay: Antifungal broth microdilution (CLSI); format: cell-based; conditions: Tm: Trichophyton mentagrophytes
Protocol: as §1

HOP-62 = assay: cells; conditions: Homo sapiens, HOP-62, 48 h; for CC50: read-out: LC50
NCI-H322M = assay: cells; conditions: Homo sapiens, 48 h; for CC50: read-out: LC50
NCI-H522 = assay: cells; conditions: Homo sapiens, NCI-H522, 48 h; for CC50: read-out: LC50
COLO 205 = assay: cells; conditions: Homo sapiens, COLO 205, 48 h; for CC50: read-out: LC50
HCT-15 = assay: cells; conditions: Homo sapiens, HCT-15, 48 h; for CC50: read-out: LC50
HT29 = assay: cells; conditions: Homo sapiens, HT-29, 48 h; for CC50: read-out: LC50
KM12 = assay: cells; conditions: Homo sapiens, KM12, 48 h; for CC50: read-out: LC50
SF-268 = assay: cells; conditions: Homo sapiens, SF-268, 48 h; for CC50: read-out: LC50
SF-295 = assay: cells; conditions: Homo sapiens, SF-295, 48 h; for CC50: read-out: LC50
U251 = assay: cells; conditions: Homo sapiens, U-251, 48 h; for GI50: U251, 48 h; for CC50: read-out: LC50
SK-MEL-2 = assay: cells; conditions: Homo sapiens, SK-MEL-2, 48 h; for CC50: read-out: LC50
SK-MEL-5 = assay: cells; conditions: Homo sapiens, SK-MEL-5, 48 h; for CC50: read-out: LC50
OVCAR-3 = assay: cells; conditions: Homo sapiens, OVCAR-3, 48 h; for CC50: read-out: LC50
OVCAR-4 = assay: cells; conditions: Homo sapiens, OVCAR-4, 48 h; for CC50: read-out: LC50
NCI/ADR-RES = assay: cells; conditions: Homo sapiens, 48 h
786-0 = assay: cells; conditions: Homo sapiens, 786-0, 48 h; for CC50: read-out: LC50
CAKI-1 = assay: cells; conditions: Homo sapiens, CAKI-1, 48 h; for CC50: read-out: LC50
UO-31 = assay: cells; conditions: Homo sapiens, UO-31, 48 h; for CC50: read-out: LC50
DU-145 = assay: cells; conditions: Homo sapiens, DU-145, 48 h; for CC50: read-out: LC50
T-47D = assay: cells; conditions: Homo sapiens, T47D, 48 h; for CC50: read-out: LC50
MDA-MB-468 = assay: cells; conditions: Homo sapiens, MDA-MB-468, 48 h; for CC50: read-out: LC50
[3] = system: N. gonorrhoeae ATCC 49226; assay: MIC on GC agar plates; format: cell-based, Neisseria gonorrhoeae; conditions: Neisseria gonorrhoeae, ATCC49226, read-out: MIC
Procedure, shortened: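 N. gonorrhoeae (1 × 10^4 CFU) was spotted onto IsoVitaleX-supplemented (1%) GC agar containing graded compound levels. The lowest inhibitory concentration was recorded as the MIC, with oxidase testing used to verify growth, and each assay was done in duplicate on at least two separate occasions.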

SR = assay: cells; conditions: Homo sapiens, 48 h
SNB-19 = assay: cells; conditions: Homo sapiens, SNB-19, 48 h
UACC-62 = assay: cells; conditions: Homo sapiens, UACC-62, 48 h

CN(C)c1nc(NCCNS(=O)(=O)c2ccc(C3=Nc4c(N)nc(N)nc4NC(c4ccc(C(F)(F)F)cc4)C3)cc2)nc(Nc2ccc(F)cc2)n1 (stereo not shown) [31g]
MIC [1]: 5 µg/mL (≈ 6.65 µM) | MIC (A. flavus (ATCC 9170)): > 250 µg/mL | MIC [2]: 62.5 µg/mL (≈ 83.1 µM) | GI50 (HOP-62): 31.4 µM | CC50 (HOP-62): 86 µM | GI50 (NCI-H322M): 42.5 µM | CC50 (NCI-H322M): 86 µM | GI50 (NCI-H522): 17.8 µM | CC50 (NCI-H522): 44.8 µM | GI50 (COLO 205): 9.73 µM | CC50 (COLO 205): 21.8 µM | GI50 (HCT-15): 55.1 µM | CC50 (HCT-15): 86 µM | GI50 (HT29): 4.88 µM | CC50 (HT29): 18.3 µM | GI50 (KM12): 6.14 µM | CC50 (KM12): 86 µM | GI50 (SF-268): 11.2 µM | CC50 (SF-268): 86 µM | GI50 (SF-295): 12.9 µM | CC50 (SF-295): 86 µM | GI50 (U251): 5.52 µM | CC50 (U251): 86 µM | GI50 (SK-MEL-2): 10.8 µM | CC50 (SK-MEL-2): 24.7 µM | GI50 (SK-MEL-5): 10.4 µM | CC50 (SK-MEL-5): 21.3 µM | GI50 (OVCAR-3): 11.9 µM | CC50 (OVCAR-3): 86 µM | GI50 (OVCAR-4): 25 µM | CC50 (OVCAR-4): 86 µM | GI50 (NCI/ADR-RES): > 86 µM | CC50 (NCI/ADR-RES; read-out: LC50): > 86 µM | GI50 (786-0): 10.1 µM | CC50 (786-0): 39.8 µM | GI50 (CAKI-1): 36.8 µM | CC50 (CAKI-1): 86 µM | GI50 (UO-31): > 86 µM | CC50 (UO-31): > 86 µM | GI50 (DU-145): 38.5 µM | CC50 (DU-145): 86 µM | GI50 (T-47D): 12 µM | CC50 (T-47D): 86 µM | GI50 (MDA-MB-468): 2.67 µM | CC50 (MDA-MB-468): 11.7 µM

COc1cc(C2CC(c3ccc(Cl)cc3)=Nc3c(N)nc(N)nc3N2)ccc1Oc1nc(Nc2ccc(F)cc2)nc(N(C)C)n1 (stereo not shown) [29e]
MIC [3]: ≥ 500 µg/mL | MIC [1]: 1.2 µg/mL (≈ 1.87 µM) | MIC (A. flavus (ATCC 9170)): > 250 µg/mL | MIC [2]: > 250 µg/mL | GI50 (SR): 3.41 µM | CC50 (SR; read-out: LC50): > 100 µM | GI50 (HOP-62): > 100 µM | CC50 (HOP-62): > 100 µM | GI50 (NCI-H322M): > 100 µM | CC50 (NCI-H322M): > 100 µM | GI50 (NCI-H522): > 100 µM | CC50 (NCI-H522): > 100 µM | GI50 (COLO 205): > 100 µM | CC50 (COLO 205): > 100 µM | GI50 (HCT-15): 76.6 µM | CC50 (HCT-15): > 100 µM | GI50 (HT29): 29.4 µM | CC50 (HT29): > 100 µM | GI50 (KM12): 40.1 µM | CC50 (KM12): > 100 µM | GI50 (SF-268): > 100 µM | CC50 (SF-268): > 100 µM | GI50 (SF-295): > 100 µM | CC50 (SF-295): > 100 µM | GI50 (SNB-19): > 100 µM | CC50 (SNB-19; read-out: LC50): > 100 µM | GI50 (U251): > 100 µM | CC50 (U251): > 100 µM | GI50 (SK-MEL-2): > 100 µM | CC50 (SK-MEL-2): > 100 µM | GI50 (SK-MEL-5): 17.2 µM | CC50 (SK-MEL-5): > 100 µM | GI50 (UACC-62): > 100 µM | CC50 (UACC-62; read-out: LC50): > 100 µM | GI50 (OVCAR-3): > 100 µM | CC50 (OVCAR-3): > 100 µM | GI50 (OVCAR-4): 18.9 µM | CC50 (OVCAR-4): > 100 µM | GI50 (786-0): > 100 µM | CC50 (786-0): > 100 µM | GI50 (CAKI-1): 3.38 µM | CC50 (CAKI-1): > 100 µM | CC50 (UO-31): > 100 µM | GI50 (DU-145): > 100 µM | CC50 (DU-145): > 100 µM | GI50 (T-47D): > 100 µM | CC50 (T-47D): > 100 µM | GI50 (MDA-MB-468): 17.8 µM | CC50 (MDA-MB-468): > 100 µM
